Laboratory results published in PMC5515969, “Effects of 31 FDA approved small-molecule kinase inhibitors on isolated rat liver mitochondria” (Archives of Toxicology, 2016).
Where two headings read alike, the source gives them in different places.

Legend:
[1] = cited from earlier work
RCC III = RCC III activity in submitochondrial particles; format: biochemical, rat; design: key to RCC III at 100XCmax: activity relative to DMSO-treated controls (control set as 1 = 100%); conditions: 100XCmax
In short: (§1)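 Rat submitochondrial particles (1 mg/ml) were treated with test compounds for 15 min. RCC IV, like RCC III, was monitored at 550 nm every 10 s for 2 min, and RCC I/V at 340 nm each minute for 6 min. DMSO samples defined unit activity.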

RCC IV = RCC IV activity in submitochondrial particles; format: biochemical, rat; design: key to RCC IV at 50XCmax / RCC IV at 100XCmax: activity relative to DMSO-treated controls (control set as 1 = 100%); conditions: 50XCmax; DMSO treated samples set as 1; in %
In short: as §1

[2] = test system: isolated rat liver mitochondria; conditions: positive control alamethicin treated samples
[3] = test system: isolated rat liver mitochondria; test: Mitochondrial ROS production (CM-H2DCFDA); conditions: DMSO treated samples set as 1
[4] = test system: isolated rat liver mitochondria; test: Mitochondrial swelling (absorbance at 535 nm); format: biochemical; conditions: difference in signal between KI and DMSO treated samples at the end of experiments; for Swelling 5XCmax: key: 0 indicates that the drug had no effects (negative)
[5] = 1 DILI positive, 0 negative according to labeling; ref product labeling; cited from earlier work
[6] = test system: isolated rat liver mitochondria; test: Mitochondrial oxygen consumption (glutamate/malate or succinate driven, state 4 and state 3); format: biochemical; conditions: for Glutamate/malate driven respiration State 3 / Glutamate/malate driven respiration State 4 / Succinate-driven respiration State 3 / Succinate-driven respiration State 4: oxygen consumption, DMSO-treated = 1; for State 3 respiration driven by succinate at 10XCmax: key: 0 indicates that the drug had no effects (negative); for State 3 respiration driven by succinate at 1XCmax: key: 0 indicates that the drug had no effects (negative)
In short: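 Oxygen uptake on glutamate/malate or on succinate defined state 4; ADP added 3 min later gave state 3. Mitochondria isolated from rat liver by differential centrifugation, adjusted to 1 mg/ml and pretreated 5 min with inhibitor (0.1% DMSO final). Values relative to DMSO control, set to 1.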

[7] = test system: isolated rat liver mitochondria; test: Mitochondrial inner membrane potential (MMP), Rhodamine 123; format: biochemical; conditions: difference in signal between KI and DMSO treated samples at the end of experiments
Source text: Fig. 3 KI effects on mitochondrial inner membrane potential (MMP). […] In a, c, data are means and standard derivations from three separate experiments. *p < 0.05 as compared to DMSO-treated samples at the end of experiments. In b, data are means of two independent experiments

[8] = human therapeutic maximal blood concentration, ref product labeling
[9] = read-out: Cmax at µM, human therapeutic maximal blood concentration, ref product labeling
[10] = 1XCmax, DMSO treated samples set as 1
[11] = 2.5XCmax, DMSO treated samples set as 1
[12] = 5XCmax, DMSO treated samples set as 1
[13] = 10XCmax, DMSO treated samples set as 1
[14] = 20XCmax, DMSO treated samples set as 1
[15] = 30XCmax, DMSO treated samples set as 1
[16] = 50XCmax, DMSO treated samples set as 1
[17] = 100XCmax, DMSO treated samples set as 1

For CC(=O)c1c(C)c2cnc(Nc3ccc(N4CCNCC4)cn3)nc2n(C2CCCC2)c1=O.Cl [palbociclib hydrochloride], the “Cmax (ng or µg/ml)” value [1, 8] is listed as 0.116 µg/mL, the Cmax [1, 9] is listed as 0.24 µM and the “RCC III at 100XCmax” value (RCC III) is listed as 0. The “RCC IV at 50XCmax” value (RCC IV) was 0, the “Cytochrome c release 1XCmax” value [2] was 0 and the “Cytochrome c release 2.5XCmax” value [2] was 0. For the same compound, the “Cytochrome c release 5XCmax” value [2] was 0, the “Cytochrome c release 10XCmax” value [2] was 0 and the “Cytochrome c release 20XCmax” value [2] was 0. The “Cytochrome c release 30XCmax” value [2] was 0, the “Cytochrome c release 50XCmax” value [2] was 0 and the “Cytochrome c release 100XCmax” value [2] was 0. The “ROS measured by CM-H2DCFDA at 1XCmax” value [3] was 0, the “ROS measured by CM-H2DCFDA at 2.5XCmax” value [3] was 0 and the “ROS measured by CM-H2DCFDA at 5XCmax” value [3] was 0. The “ROS measured by CM-H2DCFDA at 10XCmax” value [3] was 0, the “ROS measured by CM-H2DCFDA at 20XCmax” value [3] was 0 and the “ROS measured by CM-H2DCFDA at 30XCmax” value [3] was 0. The “ROS measured by CM-H2DCFDA at 50XCmax” value [3] was 0, the “ROS measured by CM-H2DCFDA at 100XCmax” value [3] was 0 and the “Swelling 1XCmax” value [4] was 0. For the same compound, the “Swelling 2.5XCmax” value [4] was 0, the “Swelling 5XCmax” value [4] was 0 and the “Swelling 10XCmax” value [4] was 0. For the same compound, the “Swelling 20XCmax” value [4] was 0, the “Swelling 30XCmax” value [4] was 0 and the “Swelling 50XCmax” value [4] was 0. The “Swelling 100XCmax” value [4] was 0, the “DILI potential (based on labeling)” value [5] was 0 and the “State 3 respiration driven by glutamate/malate at 1XCmax” value [6, 10] was 0. For the same compound, the “State 3 respiration driven by succinate at 1XCmax” value [6, 10] was 0, the “State 4 respiration driven by glutamate/malate at 1XCmax” value [6, 10] was 0 and the “State 4 respiration driven by succinate at 1XCmax” value [6, 10] was 0. For the same compound, the “State 3 respiration driven by glutamate/malate at 2.5XCmax” value [6, 11] was 0, the “State 3 respiration driven by succinate at 2.5XCmax” value [6, 11] was 0 and the “State 4 respiration driven by glutamate/malate at 2.5XCmax” value [6, 11] was 0. For the same compound, the “State 4 respiration driven by succinate at 2.5XCmax” value [6, 11] was 0, the “State 3 respiration driven by glutamate/malate at 5XCmax” value [6, 12] was 0 and the “State 3 respiration driven by succinate at 5XCmax” value [6, 12] was 0. The “State 4 respiration driven by glutamate/malate at 5XCmax” value [6, 12] was 0, the “State 4 respiration driven by succinate at 5XCmax” value [6, 12] was 0 and the “State 3 respiration driven by glutamate/malate at 10XCmax” value [6, 13] was 0. The “State 3 respiration driven by succinate at 10XCmax” value [6, 13] was 0, the “State 4 respiration driven by glutamate/malate at 10XCmax” value [6, 13] was 0 and the “State 4 respiration driven by succinate at 10XCmax” value [6, 13] was 0. The “State 3 respiration driven by glutamate/malate at 20XCmax” value [6, 14] was 0, the “State 3 respiration driven by succinate at 20XCmax” value [6, 14] was 0 and the “State 4 respiration driven by glutamate/malate at 20XCmax” value [6, 14] was 0. For the same compound, the “State 4 respiration driven by succinate at 20XCmax” value [6, 14] was 0, the “State 3 respiration driven by glutamate/malate at 30XCmax” value [6, 15] was 0 and the “State 3 respiration driven by succinate at 30XCmax” value [6, 15] was 0. The “State 4 respiration driven by glutamate/malate at 30XCmax” value [6, 15] was 0, the “State 4 respiration driven by succinate at 30XCmax” value [6, 15] was 0 and the “State 3 respiration driven by glutamate/malate at 50XCmax” value [6, 16] was 0. For the same compound, the “State 3 respiration driven by succinate at 50XCmax” value [6, 16] was 0, the “State 4 respiration driven by glutamate/malate at 50XCmax” value [6, 16] was 0 and the “State 4 respiration driven by succinate at 50XCmax” value [6, 16] was 0. For the same compound, the “State 3 respiration driven by glutamate/malate at 100XCmax” value [6, 17] was 0, the “State 3 respiration driven by succinate at 100XCmax” value [6, 17] was 0 and the “State 4 respiration driven by glutamate/malate at 100XCmax” value [6, 17] was 0. The “State 4 respiration driven by succinate at 100XCmax” value [6, 17] was 0, the “MMP measured by Rhodamine 123 at 1XCmax” value [7] was 0 and the “MMP measured by Rhodamine 123 at 2.5XCmax” value [7] was 0. For the same compound, the “MMP measured by Rhodamine 123 at 5XCmax” value [7] was 0, the “MMP measured by Rhodamine 123 at 10XCmax” value [7] was 0 and the “MMP measured by Rhodamine 123 at 20XCmax” value [7] was 0. The “MMP measured by Rhodamine 123 at 30XCmax” value [7] was 0, the “MMP measured by Rhodamine 123 at 50XCmax” value [7] was 0 and the “MMP measured by Rhodamine 123 at 100XCmax” value [7] was 0.

In the case of COc1cc2nccc(Oc3ccc(NC(=O)NC4CC4)c(Cl)c3)c2cc1C(N)=O [Lenvatinib], the Cmax ([1]; human therapeutic Cmax at FDA recommended dosages, ref product labeling and drug approval packages at the official FDA website) is given as 0.68 µM, the “Cmax (ng or µg/ml)” value [1, 8] is given as 0.291 µg/mL and the Cmax [1, 9] is given as 0.68 µM. For the same compound, the “RCC III at 100XCmax” value (RCC III) was 0, the “RCC IV at 50XCmax” value (RCC IV) was 0 and the “Cytochrome c release 1XCmax” value [2] was 0. For the same compound, the “Cytochrome c release 2.5XCmax” value [2] was 0, the “Cytochrome c release 5XCmax” value [2] was 0 and the “Cytochrome c release 10XCmax” value [2] was 0. The “Cytochrome c release 20XCmax” value [2] was 0, the “Cytochrome c release 30XCmax” value [2] was 0 and the “Cytochrome c release 50XCmax” value [2] was 0. For the same compound, the “Cytochrome c release 100XCmax” value [2] was 0, the “ROS measured by CM-H2DCFDA at 1XCmax” value [3] was 0 and the “ROS measured by CM-H2DCFDA at 2.5XCmax” value [3] was 0. The “ROS measured by CM-H2DCFDA at 5XCmax” value [3] was 0, the “ROS measured by CM-H2DCFDA at 10XCmax” value [3] was 0 and the “ROS measured by CM-H2DCFDA at 20XCmax” value [3] was 0. The “ROS measured by CM-H2DCFDA at 30XCmax” value [3] was 0, the “ROS measured by CM-H2DCFDA at 50XCmax” value [3] was 0 and the “ROS measured by CM-H2DCFDA at 100XCmax” value [3] was 0. For the same compound, the “Swelling 1XCmax” value [4] was 0, the “Swelling 2.5XCmax” value [4] was 0 and the “Swelling 5XCmax” value [4] was 0. The “Swelling 10XCmax” value [4] was 0, the “Swelling 20XCmax” value [4] was 0 and the “Swelling 30XCmax” value [4] was 0. For the same compound, the “Swelling 50XCmax” value [4] was 0, the “Swelling 100XCmax” value [4] was 0 and the “State 3 respiration driven by succinate at 1XCmax” value [6, 10] was 0. The “State 4 respiration driven by succinate at 1XCmax” value [6, 10] was 0, the “State 3 respiration driven by succinate at 2.5XCmax” value [6, 11] was 0 and the “State 4 respiration driven by succinate at 2.5XCmax” value [6, 11] was 0. The “State 3 respiration driven by succinate at 5XCmax” value [6, 12] was 0, the “State 4 respiration driven by succinate at 5XCmax” value [6, 12] was 0 and the “State 3 respiration driven by succinate at 10XCmax” value [6, 13] was 0. The “State 4 respiration driven by succinate at 10XCmax” value [6, 13] was 0, the “State 3 respiration driven by succinate at 20XCmax” value [6, 14] was 0 and the “State 4 respiration driven by succinate at 20XCmax” value [6, 14] was 0. For the same compound, the “Glutamate/malate driven respiration State 3” value ([6]; 30-fold Cmax) was 0.76 ± 0.05, the “Glutamate/malate driven respiration State 4” value ([6]; 30-fold Cmax) was 0.95 ± 0.06 and the “Succinate-driven respiration State 3” value ([6]; 30-fold Cmax) was 0.86 ± 0.04. The “Succinate-driven respiration State 4” value ([6]; 30-fold Cmax) was 0.94 ± 0.01, the “State 3 respiration driven by glutamate/malate at 30XCmax” value [6, 15] was 0.76±0.05 and the “State 3 respiration driven by succinate at 30XCmax” value [6, 15] was 0. The “State 4 respiration driven by succinate at 30XCmax” value [6, 15] was 0, the “Glutamate/malate driven respiration State 3” value ([6]; 50-fold Cmax) was 0.70 ± 0.02 and the “Glutamate/malate driven respiration State 4” value ([6]; 50-fold Cmax) was 0.93 ± 0.01. The “Succinate-driven respiration State 3” value ([6]; 50-fold Cmax) was 0.90 ± 0.01, the “Succinate-driven respiration State 4” value ([6]; 50-fold Cmax) was 0.96 ± 0.03 and the “State 3 respiration driven by glutamate/malate at 50XCmax” value [6, 16] was 0.70±0.02. The “State 3 respiration driven by succinate at 50XCmax” value [6, 16] was 0, the “State 4 respiration driven by succinate at 50XCmax” value [6, 16] was 0 and the “Glutamate/malate driven respiration State 3” value ([6]; 100-fold Cmax) was 0.74 ± 0.04. The “Glutamate/malate driven respiration State 4” value ([6]; 100-fold Cmax) was 1.06 ± 0.06, the “Succinate-driven respiration State 3” value ([6]; 100-fold Cmax) was 0.99 ± 0.03 and the “Succinate-driven respiration State 4” value ([6]; 100-fold Cmax) was 1.07 ± 0.03. The “State 3 respiration driven by glutamate/malate at 100XCmax” value [6, 17] was 0.74±0.04, the “State 3 respiration driven by succinate at 100XCmax” value [6, 17] was 0 and the “State 4 respiration driven by succinate at 100XCmax” value [6, 17] was 0. For the same compound, the “lowest concentration significantly affecting mitochondrial oxygen consumption” value ([6]; tested at 1 to 100-fold Cmax) was 30 fold Cmax, the “MMP measured by Rhodamine 123 at 1XCmax” value [7] was 0 and the “MMP measured by Rhodamine 123 at 2.5XCmax” value [7] was 0. For the same compound, the “MMP measured by Rhodamine 123 at 5XCmax” value [7] was 0, the “MMP measured by Rhodamine 123 at 10XCmax” value [7] was 0 and the “MMP measured by Rhodamine 123 at 20XCmax” value [7] was 0. For the same compound, the “MMP measured by Rhodamine 123 at 30XCmax” value [7] was 0, the “MMP measured by Rhodamine 123 at 50XCmax” value [7] was 0 and the “MMP measured by Rhodamine 123 at 100XCmax” value [7] was 0.
